In patent US20240108645A1, “SENESCENCE AND SENESCENCE ASSOCIATED SECRETORY PHENOTYPE” (Metro Biotech NSW Pty Ltd, priority 2013, published 2024):
Entries after “also recorded” stand apart in the source; their conditions may differ.

How the values were obtained:
[1] = target: NAMPT (Homo sapiens, UniProt P43490); details: in vitro; Wang et al. (2014) Cell; cited from earlier work
[2] = tested on: senescence associated secretory proteins and cell cycle markers (mRNA); assay: Quantitative RTPCR of senescence marker mRNA in epidymal adipose tissue; assay type: in vivo, C57BL6 mice; details: chow or high fat feed supplemented with 500 mg/kg apigenin
Procedure: C57BL6 mice were fed chow, chow supplemented with 500 mg/kg apigenin, high fat feed or high fat feed supplemented with 500 mg/kg apigenin for 6 months. At 6 months, mRNA expression levels of senescence associated secretory proteins was determined in epidymal adipose tissue using quantitative RTPCR. At 12 months, mRNA expression levels of cell cycle markers was determined in epidymal adipose tissue using quantitative RTPCR.

[3] = target: T1, CD38 (Homo sapiens, UniProt P28907); details: in vitro; Esande et al. (2013) Diabetes; cited from earlier work
T1 sequence (P28907 1-300): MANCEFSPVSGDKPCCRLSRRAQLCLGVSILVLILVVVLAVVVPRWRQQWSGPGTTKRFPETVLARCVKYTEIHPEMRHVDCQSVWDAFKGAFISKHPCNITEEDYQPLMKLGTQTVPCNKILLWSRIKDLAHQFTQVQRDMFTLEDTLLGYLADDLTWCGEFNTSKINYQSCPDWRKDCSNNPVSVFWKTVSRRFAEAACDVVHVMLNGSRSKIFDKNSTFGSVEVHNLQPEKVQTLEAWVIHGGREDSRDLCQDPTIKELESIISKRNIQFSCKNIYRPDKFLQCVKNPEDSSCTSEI

[4] = Body weight after whole body γ-irradiation; assay type: in vivo, female C57BL6 mice; details: 500cGy whole body γ-irradiation; apigenin 500 mg/kg feed; 20 days post-irradiation
Procedure: In order to assess the affects of an NAD^+ agonist on the effects of radiation, female C57BL6 (3-4 months old) were exposed to a single dose (500cGy) of whole body γ-irradiation or no irradiation (control). Mice were then maintained on chow diet with or without the addition of the NAD^+ raising compound apigenin to diet (500 mg/kg feed). The weight of the mice was determined at various time points for 20 days post-irradiation.

[5] = Body weight after doxorubicin; assay type: in vivo, male C57BL6 mice; details: doxorubicin 10 mg/kg i.p. + apigenin 500 mg/kg of diet from 8 days before
Procedure: Vehicle control: 10% DMSO in PBS administered intraperitoneally; • 2. Apigenin: administered in diet at 500 mg/kg of diet, in addition to vehicle control administered i.p.; • 3. […] Apigenin administered in diet of 500 mg/kg of diet, and doxorubicin administered at 10 mg/kg body weight i.p. Apigenin was administered 8 days prior to administration of a single dose of doxorubicin. Body weight was assessed during the course of the experiment as a read-out of general health and malaise, the results of which are shown in FIG. 11.

[6] = tested on: p16^INK4A; assay: Doxorubicin-induced senescence in p16^LUC mice, bioluminescence/CT imaging; assay type: in vivo; details: doxorubicin 1 mg/kg i.p. + apigenin 500 mg/kg of food from 4 days before; vs doxorubicin alone
Procedure: Vehicle control: 10% DMSO in PBS administered intraperitoneally; • 2. Apigenin: administered in diet at 500 mg/kg of food in addition to vehicle control administered i.p.; • 3. […] Apigenin administered in chow diet at 500 mg/kg of food, and doxorubicin administered at 1 mg/kg body weight i.p. Apigenin was administered 4 days prior to administration of doxorubicin. The animals were subjected to bioluminescence/CT imaging (Spectrum-CT instrument, PerkinElmer) as a readout for senescence 24 hours after treatment was completed. Areas of luminescence are shown as lightened areas in FIG. 5 and are indicated by an arrow.

[7] = tested on: C2C12 myoblasts; assay: SA-β-Gal staining of C2C12 myoblasts incubated with various agents; assay type: cell-based
Procedure: The ability of NAD^+ agonists to reduce senescence associated with various agents was tested by inclubating C2C12 myoblasts with various agents in the presence or absence of NMN or apigenin, and the cells subsequent stained as mentioned above for SA-β-Gal activity. The following agents were tested: [table]

[8] = tested on: 3T3-L1 adipocytes; assay: SA-β-gal chromogenic staining of dexamethasone treated 3T3-L1 adipocytes; assay type: cell-based; details: 5 days; dexamethasone 1, 0.5, 0.1 or 0.01 mg/ml; 1 mM NMN, 25 mM apigenin
Procedure: To further investigate the effects of NAD^+ agonists on dexamethasone induced senescence, 3T3-L1 adipocytes were treated for 5 days with ethanol (control), or 1 mg/ml, 0.5 mg/ml, 0.1 mg/ml or 0.01 mg/ml of dexamethasone in combination with either DMSA, 1 mM NMN, 25 mM apigenin, or 1 mM NMN and 25 mM apigenin and subjected to senescence associated beta-galactosidase staining according to the chromogenic protocol of Debacq-Chainiaux F et al Nature Protocols 2009.

[9] = tested on: 3T3-L1 adipocytes; assay: Intracellular lipid content (oil red o) of 3T3-L1 adipocytes treated with antiretroviral agents; details: apigenin 25 μM; cells treated 24 hr with 30 μM AZT, Efavirenz, Lopinavir, Ritonavir
Procedure: The ability of NAD^+ agonists to reduce or prevent lipodystrophy associated with anti-retroviral compounds was assessed. The ability of NMN to prevent or reduce lipodystrophy was tested by determining the lipid content of 3T3-L1 adipocytes treated with a vehicle, or the antiretroviral agent stavudine, either alone or in combination with NMN.
3T3-L1 adipocytes were treated for 24 hr with the HIV antiretroviral compound stavudine (10 nM) in the presence or absence of NMN (1 mM). Intracellular lipid content was assessed using oil red o staining, which was quantified by reading absorbance at 544 nm. Error bars: SD.
In order to further test the ability of NAD^+ agonists to reduce lipodystrophy associated with antiretroviral agents, 3T3-L1 adipocytes were treated for 24 hr with various antiretroviral compounds (30 μM) in the presence or absence of NMN (1 mM) or apigenin (25 μM). Intracellular lipid content was assessed using oil red o staining, which was quantified by reading absorbance at 544 nm.

[10] = tested on: C2C12 myoblasts; assay: SA-β-Gal activity in C2C12 myoblasts by flow cytometry with C12FDG; assay type: cell-based
Procedure: To determine the ability of NAD^+ agonists to prevent or reduce senescence associated with treatment with corticoids, C2C12 myoblasts were assayed for SA-β-Gal activity following contact with vehicle, NMN, apigenin, dexamethasone, dexamethasone and NMN, and dexamethasone and apigenin. SA-β-Gal activity was determined using the fluorogenic substrate, C12FDG, by flow cytometry (protocol of Debacq-Chainiaux et al. Nature Protocols 2009). FIG. 7A: […] FIGS. 7B and 7C: […] SA-β-Gal activity was decreased with NMN and/or apigenin. All data are presented as the mean value. * p<0.05, **** p<0.0001, using two-way ANOVA multiple comparisons test.

[11] = tested on: senescence associated β-galactosidase; assay: Senescence associated β-galactosidase staining of epididymal adipose tissue whole mounts; assay type: in vivo, C57BL6 mice
Procedure: 18 month old C57BL6 mice were treated with or without […] intraperitoneal apigenin for 7 days. Epidydimal adipose tissue whole mounts were obtained from the mice and stained for expression of senescence associated β-galactosidase according to the chromogenic protocol of Debacq-Chainiaux F et al., Protocols to Detect Senescence-associated beta-galactosidase (SA-betagal) activity, a biomarker of senescent cells in culture and in vivo, Nature Protocols 2009; 4(12): 1798-1806. Cells that have undergone cellular senescence express β-galactosidase and stain blue (which can be seen as a darker grey in FIG. 1A).

Chain of NAMPT (P43490 whole entry, species assumed): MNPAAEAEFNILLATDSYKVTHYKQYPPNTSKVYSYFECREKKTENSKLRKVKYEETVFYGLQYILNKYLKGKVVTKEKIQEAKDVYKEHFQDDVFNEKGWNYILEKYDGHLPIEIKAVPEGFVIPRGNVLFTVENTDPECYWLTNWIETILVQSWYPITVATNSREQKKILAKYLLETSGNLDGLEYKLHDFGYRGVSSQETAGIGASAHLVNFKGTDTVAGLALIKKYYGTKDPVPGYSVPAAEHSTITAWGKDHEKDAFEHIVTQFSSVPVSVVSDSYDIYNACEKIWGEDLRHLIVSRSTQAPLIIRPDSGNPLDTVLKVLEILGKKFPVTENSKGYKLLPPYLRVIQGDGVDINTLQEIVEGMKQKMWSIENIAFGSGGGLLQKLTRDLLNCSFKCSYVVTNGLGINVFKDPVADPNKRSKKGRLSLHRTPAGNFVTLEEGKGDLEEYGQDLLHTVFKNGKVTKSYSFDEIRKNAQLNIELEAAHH

Compound: OC(CNc1ccccc1)Cn1c2ccc(Br)cc2c2cc(Br)ccc21 (stereo not drawn) [P7C3]
- activity of NAMPT [1]: enhances activity of NAMPT in vitro

Compound: O=c1cc(-c2ccc(O)cc2)oc2cc(O)cc(O)c12 [apigenin, 5,7-dihydroxy-2-(4-hydroxyphenyl)-4H-1-benzopyran-4-one]
- mRNA expression of senescence associated secretory proteins (FIG. 2) ([2]; 6 months): significant reduction in expression of senescence markers
- mRNA expression of cell cycle markers (FIG. 3) ([2]; 12 months): significant reduction in expression of senescence markers
- inhibition of CD38 activity [3]: inhibitors of CD38 activity in vitro
- body weight after irradiation [4]: prevented this weight loss
- body weight [5]: rescue in body weight to a degree similar to non-doxorubicin treated animals
- p16^INK4A induction (bioluminescence) [6]: little or no signs of p16^INK4A induction
- extent of senescence (proportion of cells stained blue, SA-β-Gal activity) ([7]; agents of the table of b212 with vs without apigenin or NMN): reduce the extent of senescence induced by the agents tested
- extent to which the cells undergo senescence ([7]; co-administration with AZT, 3TC, zalcitabine, efavirenze, lopinavir, ritonavir, nevirapine, tipranavir, tenofovir, invirase vs agent alone): reduces the extent to which the cells undergo senescence
- extent to which the cells undergo senescence ([7]; co-administration with PPARγ agonist rosiglitazone vs rosiglitazone alone): reduces the extent to which the cells undergo senescence
- extent to which the cells undergo senescence ([7]; co-administration with antiprotozoal agent quinacrine vs quinacrine alone): reduces the extent to which the cells undergo senescence
- extent to which the cells undergo senescence ([7]; co-administration with each of the chemotherapeutic agents listed in b109 vs agent alone): reduces the extent to which the cells undergo senescence
- extent to which the cells undergo senescence ([7]; co-administration with xanthine oxidase inhibitor allopurinol vs allopurinol alone): reduces the extent to which the cells undergo senescence
- extent to which the cells undergo senescence ([7]; co-administration with zolendronate vs zolendronate alone): reduces the extent to which the cells undergo senescence
- SA-β-gal staining (blue cells), dexamethasone induced senescence [8]: reduce or prevent senescence induced by dexamethasone
- lipodystrophy (intracellular lipid content, oil red o) [9]: reduced lipodystrophy
- SA-β-Gal activity (FIG. 7B) ([10]; 72 hours, dexamethasone sodium phosphate 250 nM or PBS, NMN 1 mM or apigenin 25 uM): decreased
- SA-β-Gal activity (FIG. 7C) ([10]; 96 hours, dexamethasone sodium phosphate 250 nM or PBS, NMN 1 mM or apigenin 25 uM): decreased
- percentage of cells which exhibited SA-β-Gal activity following treatment with dexamethasone ([10]; summary of FIGS. 7A-7C): reduced the percentage of cells which exhibited SA-β-Gal activity
- SA-β-gal staining of adipose tissue (FIG. 1B) ([11]; 3 and 18 month old mice fed chow or chow supplemented with apigenin): little or no staining
- senescence associated β-galactosidase staining of adipose tissue (FIG. 1A) ([11]; 18 month old mice, 100 mg/day intraperitoneal apigenin for 7 days / chow supplemented daily with 100 mg/kg apigenin, vs chow fed control, 100 mg/kg): less compared to chow fed mice; also recorded: significantly less senescence-associated β-galactosidase expression
